The target of this assay is T1, Kv7.2/7.3 (Homo sapiens, UniProt O43525+O43526).
T1 construct: host or cells: HEK cells, tetracycline-inducible expression
The experiment in a line: Kv7.2/7.3 activation assay, QPatch planar patch-clamp, single concentration screen. Format: cell-based. Particulars: Kv7.2/Kv7.3 co-expressing HEK cells, steady-state current at end of 1 s pulse to −30 mV; for Kv7.2/7.3 Activity at 10 μM (increase in current over baseline): compound 10 μM; for Kv7.2/7.3 Activity at 3 μM (increase in current over baseline): compound 3 μM. The protocol: Kv7.2/7.3 Activation Assay
The ability of compounds to potentiate K-currents in KV7.2/7.3 containing HEK cells was assessed using planar patch-clamp on the QPatch automated screening platform.
The hKV7.2/7.3 cell line was obtained from Chantest (Cleveland, Ohio 44128) cat.# CT6147. These HEK cells will express the Kv7.2/7.3 ion channels when induced.
Cell Culture: Cells were maintained in a media containing DMEM/F12; 50/50 (GIBCO cat.#11330), 10% Fetal Bovine Serum (FBS) (GIBCO cat.#26140), 100 units/mL Penicillin-Streptomycin (GIBCO cat.#15140), 0.005 mg/mL Blasticidin (INVIVOGEN cat.# ant-bl-1), 0.5 mg/mL Geneticin (GIBCO cat.#10131), 0.1 mg/mL Zeocin (GIBCO cat.# R25001). Cells used in the electrophysiology assay were maintained in a media without Blasticidin, Geneticin and Zeocin for 2 days and channel expression was induced by adding tetracycline (BIOLINE cat.# BIO-87030) at a final concentration of […]. Cells were grown in T-175 flask to ˜75% confluency. Currents were recorded 24 hours after channel induction.
Test compounds were prepared by performing serial dilutions on a Biomek NX^P (BECKMAN COULTER). Final dilutions were made in external recording solution with a final DMSO concentration of 0.1% DMSO. For single concentration screens each plate had 10 μM retigabine as a positive control and 0.1% DMSO as a negative control.
On the day of the experiment cells were washed with Hank's Balanced Salt Solution (HBBS) (GIBCO cat.#14175) and harvested with Tryple (GIBCO cat.#12604). Cells were then centrifuged at 2000 rpm for 5 minutes and resuspended in CHO-S-SFM (GIBCO cat.#12052) at ˜3×10^6 cells/mL. Cells were stirred for 30 minutes before experiments were started. External recording solution contained (in mM): NaCl (145), KCl (4), CaCl2 (2), MgCl2 (1), HEPES (10) and Glucose (10); pH was adjusted to 7.4 with NaOH and the osmolarity was adjusted to 300-305 mOsM with sucrose if necessary. Internal solution contained (in mM): KCl (125), KF (10), EGTA (5), Na2ATP (5), MgCl2 (3.2), HEPES (5); pH was adjusted to 7.2 with KOH and the osmolarity was adjusted to 298-302 mOsM with sucrose.
Potassium channel activity was measured on the QPatch HTX (Sophion Bioscience) using QPlates with 48-wells/plate. Each cell was taken as an independent experiment and only one compound was tested per well. Potassium channel activity was elicited by holding at −80 mV and stepping to −30 mV for 1 s followed by a 100 ms pulse to −120 mV.
Baseline conditions were obtained by recording 5 sweeps in the external solution only, this was repeated for three applications of the external solution. The effect of test compounds on elicited current was then assessed by recording 5 sweeps in the presence of a 3 μM or 10 μM compound solution. The steady-state current at the end of the 1 s pulse to −30 mV was measured to determine the fold increase from baseline.

In the case of `O=C(CCC1CCCC1)Nc1nc2ccc(Cl)nc2n1C1CCC1` [Example 27, N-(5-chloro-3-cyclobutyl-3H-imidazo[4,5-b]pyridin-2-yl)-3-cyclopentylpropanamide], the “Kv7.2/7.3 Activity at 10 μM (increase in current over baseline)” value is reported as “+++ (>6-fold increase over baseline (+++))”. As to `O=C(CC(C(F)(F)F)C(F)(F)F)Nc1nc2ccc(Cl)nc2n1C1CCC1` [Example 6, N-(5-chloro-3-cyclobutyl-3H-imidazo[4,5-b]pyridin-2-yl)-4,4,4-trifluoro-3-(trifluoromethyl)butanamide], the “Kv7.2/7.3 Activity at 3 μM (increase in current over baseline)” value is “− (<1.2-fold increase over baseline (−))”. Take `O=C(CCc1ccccc1)Nc1nc2ccc(Cl)nc2n1C1CCC1` [Example 35, N-(5-chloro-3-cyclobutyl-3H-imidazo[4,5-b]pyridin-2-yl)-3-phenylpropanamide]: the “Kv7.2/7.3 Activity at 10 μM (increase in current over baseline)” value is recorded as “+++ (>6-fold increase over baseline (+++))”. For the compound `CC(C)Oc1ccc2nc(NC(=O)CCOC(C)(C)C)n(CC(F)(F)F)c2n1` [Example 120, 3-(tert-butoxy)-N-(5-isopropoxy-3-(2,2,2-trifluoroethyl)-3H-imidazo[4,5-b]pyridin-2-yl)propanamide], the “Kv7.2/7.3 Activity at 10 μM (increase in current over baseline)” value was “+++ (>6-fold increase over baseline (+++))”. As for `CC(C)(C)OCCC(=O)Nc1nc2ccc(C3CC3)nc2n1CC(F)(F)F` [Example 108, 3-(tert-butoxy)-N-(5-cyclopropyl-3-(2,2,2-trifluoroethyl)-3H-imidazo[4,5-b]pyridin-2-yl)propanamide], the “Kv7.2/7.3 Activity at 3 μM (increase in current over baseline)” value is “+++ (>6-fold increase over baseline (+++))”. Take `CC1(C)[C@H]2CC[C@@H](CC(=O)Nc3nc4cccnc4n3C3CCC3)[C@@H]1C2` [Example 24, N-(3-cyclobutyl-3H-imidazo[4,5-b]pyridin-2-yl)-2-((1S,2S,5S)-6,6-dimethylbicyclo[3.1.1]heptan-2-yl)acetamide]: the “Kv7.2/7.3 Activity at 3 μM (increase in current over baseline)” value is on record as “+++ (>6-fold increase over baseline (+++))” and the “Kv7.2/7.3 Activity at 10 μM (increase in current over baseline)” value is listed as “+++ (>6-fold increase over baseline (+++))”. For `CC1(C)[C@H]2CC[C@@H](CC(=O)Nc3nc4ccc(Cl)nc4n3C3CCC3)[C@@H]1C2` [Example 33, N-(5-chloro-3-cyclobutyl-3H-imidazo[4,5-b]pyridin-2-yl)-2-((1S,2S,5S)-6,6-dimethylbicyclo[3.1.1]heptan-2-yl)acetamide], the “Kv7.2/7.3 Activity at 10 μM (increase in current over baseline)” value was “+++ (>6-fold increase over baseline (+++))”. As to `Cc1ccc2nc(NC(=O)CCOC(C)(C)C)n(CC(F)(F)F)c2n1` [Example 132, 3-(tert-butoxy)-N-(5-methyl-3-(2,2,2-trifluoroethyl)-3H-imidazo[4,5-b]pyridin-2-yl)propanamide], the “Kv7.2/7.3 Activity at 10 μM (increase in current over baseline)” value is recorded as “+++ (>6-fold increase over baseline (+++))”. Take `CC(C)(C)CC(=O)Nc1nc2ccc(-c3cccnc3)nc2n1C1CCC1.Cl` [Example 151, N-(3-cyclobutyl-5-(pyridin-3-yl)-3H-imidazo[4,5-b]pyridin-2-yl)-3,3-dimethylbutanamide hydrochloride]: the “Kv7.2/7.3 Activity at 3 μM (increase in current over baseline)” value was “− (<1.2-fold increase over baseline (−))”. Turning to `CCOCC(=O)Nc1nc2ccc(Cl)nc2n1C1CCC1` [Example 34, N-(5-chloro-3-cyclobutyl-3H-imidazo[4,5-b]pyridin-2-yl)-2-ethoxyacetamide], the “Kv7.2/7.3 Activity at 10 μM (increase in current over baseline)” value is “− (<1.2-fold increase over baseline (−))”. Same read-out and setting: under `O=C(CCOC1CCCC1)Nc1nc2ccc(C(F)(F)F)nc2n1C1CCC1` [Example 91, N-(3-cyclobutyl-5-(trifluoromethyl)-3H-imidazo[4,5-b]pyridin-2-yl)-3-(cyclopentyloxy)propanamide] stands “+++ (>6-fold increase over baseline (+++))”. The same measure, in the same setting: under `CC(C)(C)CC(=O)Nc1nc2ccc(Cl)nc2n1-c1ccc(F)cc1` [Example 105, N-(5-chloro-3-(4-fluorophenyl)-3H-imidazo[4,5-b]pyridin-2-yl)-3,3-dimethylbutanamide] stands “+++ (>6-fold increase over baseline (+++))”. The same measure, in the same setting: the same measure for `CC(C)Cn1c(NC(=O)CC(C)(C)C)nc2ccc(Cl)nc21` [Example 36, N-(5-chloro-3-isobutyl-3H-imidazo[4,5-b]pyridin-2-yl)-3,3-dimethylbutanamide]: “+++ (>6-fold increase over baseline (+++))”; for `O=C(CC1CC2CCC1C2)Nc1nc2ccc(Cl)nc2n1C1CCC1` (stereo not shown) [Example 9, 2-(bicyclo[2.2.1]heptan-2-yl)-N-(5-chloro-3-cyclobutyl-3H-imidazo[4,5-b]pyridin-2-yl)acetamide]: “+++ (>6-fold increase over baseline (+++))”; for `O=C(CC1CCCCC1)Nc1nc2ccc(Cl)nc2n1C1CCC1` [Example 29, N-(5-chloro-3-cyclobutyl-3H-imidazo[4,5-b]pyridin-2-yl)-2-cyclohexylacetamide]: “+++ (>6-fold increase over baseline (+++))”.

For the compound `CC(C)(C)CC(=O)Nc1nc2ccc(C(F)(F)F)nc2n1C1CCC1` [Example 39, N-(3-cyclobutyl-5-(trifluoromethyl)-3H-imidazo[4,5-b]pyridin-2-yl)-3,3-dimethylbutanamide], the “Kv7.2/7.3 Activity at 10 μM (increase in current over baseline)” value was “+++ (>6-fold increase over baseline (+++))”. Take `CC1(C)[C@H]2CC[C@@H](CC(=O)Nc3nc4ccc(C(F)(F)F)nc4n3C3CCC3)[C@@H]1C2` [Example 47, N-(3-cyclobutyl-5-(trifluoromethyl)-3H-imidazo[4,5-b]pyridin-2-yl)-2-((1S,2S,5S)-6,6-dimethylbicyclo[3.1.1]heptan-2-yl)acetamide]: the “Kv7.2/7.3 Activity at 10 μM (increase in current over baseline)” value is “+++ (>6-fold increase over baseline (+++))”. On to `CC1(C)CCC(CC(=O)Nc2nc3ccc(C(F)(F)F)nc3n2C2CCC2)O1` (stereo not shown) [Example 96, N-(3-cyclobutyl-5-(trifluoromethyl)-3H-imidazo[4,5-b]pyridin-2-yl)-2-(5,5-dimethyltetrahydrofuran-2-yl)acetamide], for which the “Kv7.2/7.3 Activity at 10 μM (increase in current over baseline)” value is “+++ (>6-fold increase over baseline (+++))”.

Turning to `CC(C)CC(=O)Nc1nc2ccc(C(F)(F)F)nc2n1C1CCC1` [Example 42, N-(3-cyclobutyl-5-(trifluoromethyl)-3H-imidazo[4,5-b]pyridin-2-yl)-3-methylbutanamide], the “Kv7.2/7.3 Activity at 10 μM (increase in current over baseline)” value is recorded as “+++ (>6-fold increase over baseline (+++))”. The same measure, in the same setting: under `CC(C)(C)OCCC(=O)Nc1nc2cccnc2n1C1CCC1` [Example 3, 3-(tert-butoxy)-N-(3-cyclobutyl-3H-imidazo[4,5-b]pyridin-2-yl)propanamide] stands “+++ (>6-fold increase over baseline (+++))”; under `CC(C)CC(=O)Nc1nc2ccc(Cl)nc2n1C1CCC1` [Example 28, N-(5-chloro-3-cyclobutyl-3H-imidazo[4,5-b]pyridin-2-yl)-3-methylbutanamide], “+++ (>6-fold increase over baseline (+++))”. For the compound `O=C(CCC1CCOC1)Nc1nc2ccc(C(F)(F)F)nc2n1C1CCC1` (stereo not shown) [Example 124, N-(3-cyclobutyl-5-(trifluoromethyl)-3H-imidazo[4,5-b]pyridin-2-yl)-3-(tetrahydrofuran-3-yl)propanamide], the “Kv7.2/7.3 Activity at 10 μM (increase in current over baseline)” value was “+++ (>6-fold increase over baseline (+++))”. Take `O=C(Cc1ccc(F)cc1)Nc1nc2cc(Cl)cnc2n1C1CCC1` [Example 58, N-(6-chloro-3-cyclobutyl-3H-imidazo[4,5-b]pyridin-2-yl)-2-(4-fluorophenyl)acetamide]: the “Kv7.2/7.3 Activity at 3 μM (increase in current over baseline)” value is reported as “− (<1.2-fold increase over baseline (−))”. The same measure, in the same setting: the same measure for `O=C(CCC1(C(F)(F)F)CC1)Nc1nc2ccc(Cl)nc2n1C1CCC1` [Example 223, N-(5-chloro-3-cyclobutyl-3H-imidazo[4,5-b]pyridin-2-yl)-3-(1-(trifluoromethyl)cyclopropyl)propanamide]: “− (<1.2-fold increase over baseline (−))”.

For the origin of these results see patent US10106536B2, “Imidazo(4,5-B) pyridin-2-yl amides as KV7 channel activators” (Knopp Biosciences LLC, priority 2013, dated 2018).
